Results from patent US11608335B2, “Somatostatin modulators and uses thereof” (CRINETICS PHARMACEUTICALS, INC., priority 2018, dated 2023).

molecular target: human somatostatin receptor subtype 5 (Homo sapiens, UniProt P35346); assay: cAMP assay for SST5R (inhibition of cAMP via human SST5 receptor)
Sequence (P35346 whole entry): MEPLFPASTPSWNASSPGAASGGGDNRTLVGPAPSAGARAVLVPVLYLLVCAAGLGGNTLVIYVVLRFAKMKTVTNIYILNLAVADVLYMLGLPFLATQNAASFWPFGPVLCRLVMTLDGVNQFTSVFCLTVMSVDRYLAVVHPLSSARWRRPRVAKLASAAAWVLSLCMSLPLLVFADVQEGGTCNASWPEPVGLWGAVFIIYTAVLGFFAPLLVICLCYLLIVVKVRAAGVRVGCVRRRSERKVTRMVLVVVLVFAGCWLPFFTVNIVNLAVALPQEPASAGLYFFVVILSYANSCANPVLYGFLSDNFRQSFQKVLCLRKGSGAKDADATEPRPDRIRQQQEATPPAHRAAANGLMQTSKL

| EC50 [nM] | SMILES |
| --- | --- |
| 100 to 1000 | CC1(N)CCN(c2c(-c3ccc4[nH]ccc4c3)cncc2-c2nc3cccc(F)c3[nH]2)C1 (stereo not shown) [Compound 2-30, 1-[3-(4-fluoro-1H-1,3-benzodiazol-2-yl)-5-(1H-indol-5-yl)pyridin-4-yl]-3-methylpyrrolidin-3-amine] |
| < 10 | Cc1ccnc2[nH]c(-c3cncc(-c4cc(F)cc(C(N)=O)c4)c3N3CC[C@](C)(N)C3)nc12 [Compound 2-169, 3-{4-[(3S)-3-amino-3-methylpyrrolidin-1-yl]-5-{7-methyl-1H-imidazo[4,5-b]pyridin-2-yl}pyridin-3-yl}-5-fluorobenzamide] |
| 100 to 1000 | N#Cc1cc(F)cc(-c2cncc(-c3nc4cccc(F)c4[nH]3)c2N2CCC(N)(C(F)(F)F)C2)c1 (stereo not shown) [Compound 2-78, 3-{4-[3-amino-3-(trifluoromethyl)pyrrolidin-1-yl]-5-(4-fluoro-1H-1,3-benzodiazol-2-yl)pyridin-3-yl}-5-fluorobenzonitrile] |
| < 10 | Cn1c(-c2cncc(-c3cccc(C#N)c3)c2N2CC[C@H](N)C2)nc2c(Cl)cccc21 [Compound 2-75, 3-{4-[(3S)-3-aminopyrrolidin-1-yl]-5-(4-chloro-1-methyl-1H-1,3-benzodiazol-2-yl)pyridin-3-yl}benzonitrile] |
| < 10 | C[C@]1(N)CCN(c2c(-c3ccc(F)c(C#N)c3)cncc2-c2nc3c(C#N)ccnc3[nH]2)C1 [Compound 2-176, 2-{4-[(3S)-3-amino-3-methylpyrrolidin-1-yl]-5-(3-cyano-4-fluorophenyl)pyridin-3-yl}-1H-imidazo[4,5-b]pyridine-7-carbonitrile] |
| 10 to 100 | N#Cc1cc(-c2cncc(-c3nc4c(F)ccc(F)c4[nH]3)c2N2CC[C@H](N)C2)ccc1C(F)(F)F [Compound 2-48, 5-{4-[(3S)-3-aminopyrrolidin-1-yl]-5-(4,7-difluoro-1H-1,3-benzodiazol-2-yl)pyridin-3-yl}-2-(trifluoromethyl)benzonitrile] |

Further lines, the molecule ahead of its results:

| SMILES | EC50 [nM] |
| --- | --- |
| NCC1CN(c2c(-c3nc4c(F)cc(F)cc4[nH]3)cncc2-c2ccccc2F)C1 [Compound 1-44, 1-{1-[3-(4,6-difluoro-1H-1,3-benzodiazol-2-yl)-5-(2-fluorophenyl)pyridin-4-yl]azetidin-3-yl}methanamine] | 100 to 1000 |
| NCC1CN(c2c(-c3nc4cc(F)cc(F)c4[nH]3)cncc2-c2cccc(Cl)c2F)C1 [Compound 1-57, 1-{1-[3-(3-chloro-2-fluorophenyl)-5-(4,6-difluoro-1H-1,3-benzodiazol-2-yl)pyridin-4-yl]azetidin-3-yl}methanamine] | 10 to 100 |
| N#Cc1cc(F)cc(-c2cncc(-c3nc4cc(F)cc(F)c4[nH]3)c2N2CC(CN)C2)c1 [Compound 1-34, 3-{4-[3-(aminomethyl)azetidin-1-yl]-5-(4,6-difluoro-1H-1,3-benzodiazol-2-yl)pyridin-3-yl}-5-fluorobenzonitrile] | < 10 |
| COc1cc(F)cc2nc(-c3cncc(-c4cc(C)cc(F)c4)c3N3CC(CN)C3)[nH]c12 [Compound 1-15, 1-{1-[3-(6-fluoro-4-methoxy-1H-1,3-benzodiazol-2-yl)-5-(3-fluoro-5-methylphenyl)pyridin-4-yl]azetidin-3-yl}methanamine] | 10 to 100 |
| Cc1cc(F)cc(-c2cncc(-c3nc4c(F)cccc4n3C)c2N2CC(CN)C2)c1 [Compound 1-24, 1-{1-[3-(4-fluoro-1-methyl-1H-1,3-benzodiazol-2-yl)-5-(3-fluoro-5-methylphenyl)pyridin-4-yl]azetidin-3-yl}methanamine] | 10 to 100 |
| COc1ccc2[nH]c(-c3cncc(-c4cc(C)cc(F)c4)c3N3CC(CN)C3)nc2c1 [Compound 1-12, 1-{1-[3-(3-fluoro-5-methylphenyl)-5-(5-methoxy-1H-1,3-benzodiazol-2-yl)pyridin-4-yl]azetidin-3-yl}methanamine] | 100 to 1000 |
| Cc1cc(F)cc(-c2cncc(-c3ncc[nH]3)c2N2CC(CN)C2)c1 [Compound 1-56, 1-{1-[3-(3-fluoro-5-methylphenyl)-5-(1H-imidazol-2-yl)pyridin-4-yl]azetidin-3-yl}methanamine] | > 1000 |
